Data: ChEMBL document CHEMBL1201862, “PubChem BioAssay data set” (2004)
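Exposure lasted 48 hours, with cells grown in 96-well plates and compounds tested at five concentrations. Here, GI50 denotes the concentration required for 50% inhibition of growth.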 Calls of active or inactive are those of the source. No stated cut-off is given here; in the data, active = GI50 up to about 1.1 µM and inactive = higher.

What was measured:
Test in all cases: growth of human tumour cells (NCI), 48 h
786-0 = tested on: 786-0
A549 = tested on: A549
ACHN = tested on: ACHN
CAKI-1 = tested on: CAKI-1
COLO 205 = tested on: COLO 205
DU-145 = tested on: DU-145
EKVX = tested on: EKVX
HCC 2998 = tested on: HCC 2998
HCT-116 = tested on: HCT-116
HCT-15 = tested on: HCT-15
HL-60 = tested on: HL-60
HOP-62 = tested on: HOP-62
HOP-92 = tested on: HOP-92
HT-29 = tested on: HT-29
IGROV-1 = tested on: IGROV-1
KM12 = tested on: KM12
LOX IMVI = tested on: LOX IMVI
M14 = tested on: M14
MCF7 = tested on: MCF7
MDA-MB-231 = tested on: MDA-MB-231
MDA-MB-435 = tested on: MDA-MB-435
MDA-N = tested on: MDA-N
MOLT-4 = tested on: MOLT-4
NCI-H226 = tested on: NCI-H226
NCI-H23 = tested on: NCI-H23
NCI-H460 = tested on: NCI-H460
NCI/ADR-RES = tested on: NCI/ADR-RES
OVCAR-3 = tested on: OVCAR-3
OVCAR-4 = tested on: OVCAR-4
OVCAR-5 = tested on: OVCAR-5
OVCAR-8 = tested on: OVCAR-8
PC-3 = tested on: PC-3
SF-295 = tested on: SF-295
SF-539 = tested on: SF-539
SK-MEL-28 = tested on: SK-MEL-28
SK-MEL-2 = tested on: SK-MEL-2
SK-MEL-5 = tested on: SK-MEL-5
SK-OV-3 = tested on: SK-OV-3
SN12C = tested on: SN12C
SNB-19 = tested on: SNB-19
SNB-75 = tested on: SNB-75
SW-620 = tested on: SW-620
T47D = tested on: T47D
TK-10 = tested on: TK-10
U-251 = tested on: U-251
UACC-257 = tested on: UACC-257
UO-31 = tested on: UO-31
A498 = tested on: A498
CCRF-CEM = tested on: CCRF-CEM
Hs-578T = tested on: Hs-578T
Malme-3M = tested on: Malme-3M
RXF 393 = tested on: RXF 393
SF-268 = tested on: SF-268
SR = tested on: SR
UACC-62 = tested on: UACC-62

Cc1ccccc1NC(=O)Cc1csc(N/N=C2\NC(=O)/C(=C/c3cccc([N+](=O)[O-])c3)S2)n1
GI50 (786-0): 45.2 µM (inactive) | GI50 (A549): 16.7 µM (inactive) | GI50 (ACHN): 15.6 µM (inactive) | GI50 (CAKI-1): 19.7 µM (inactive) | GI50 (COLO 205): 34.2 µM (inactive) | GI50 (DU-145): 36.1 µM (inactive) | GI50 (EKVX): 13.5 µM (inactive) | GI50 (HCC 2998): 14.3 µM (inactive) | GI50 (HCT-116): 36.7 µM (inactive) | GI50 (HCT-15): 15.8 µM | GI50 (HL-60): 17.8 µM (inactive) | GI50 (HOP-62): 22.9 µM (inactive) | GI50 (HOP-92): 15.8 µM (inactive) | GI50 (HT-29): 34.7 µM (inactive) | GI50 (IGROV-1): 14.1 µM (inactive) | GI50 (KM12): 16.6 µM (inactive) | GI50 (LOX IMVI): 30.3 µM (inactive) | GI50 (M14): 17 µM (inactive) | GI50 (MCF7): 41.8 µM (inactive) | GI50 (MDA-MB-231): 21.7 µM (inactive) | GI50 (MDA-MB-435): 19.8 µM (inactive) | GI50 (MDA-N): 30.5 µM (inactive) | GI50 (MOLT-4): 23.9 µM (inactive) | GI50 (NCI-H226): 17.8 µM (inactive) | GI50 (NCI-H23): 19.1 µM (inactive) | GI50 (NCI-H460): 15.6 µM (inactive) | GI50 (NCI/ADR-RES): 31.3 µM (inactive) | GI50 (OVCAR-3): 19.7 µM (inactive) | GI50 (OVCAR-4): 20.6 µM (inactive) | GI50 (OVCAR-5): 22.6 µM (inactive) | GI50 (OVCAR-8): 31.8 µM (inactive) | GI50 (PC-3): 16.6 µM (inactive) | GI50 (SF-295): 18.1 µM (inactive) | GI50 (SF-539): 17.1 µM (inactive) | GI50 (SK-MEL-28): 19.1 µM (inactive) | GI50 (SK-MEL-2): 26.4 µM (inactive) | GI50 (SK-MEL-5): 23.9 µM (inactive) | GI50 (SK-OV-3): 53.1 µM (inactive) | GI50 (SN12C): 36.6 µM (inactive) | GI50 (SNB-19): 16.1 µM (inactive) | GI50 (SNB-75): 13.1 µM (inactive) | GI50 (SW-620): 40.6 µM (inactive) | GI50 (T47D): 17.1 µM (inactive) | GI50 (TK-10): 18.9 µM (inactive) | GI50 (U-251): 21.5 µM (inactive) | GI50 (UACC-257): 20.3 µM (inactive) | GI50 (UO-31): 13.1 µM (inactive)

O=C1NC(=O)[C@@H](OCC2CCCCC2)[C@@H]2OCC3OC(C(O)C3O)C12 (stereo partly drawn)
GI50 (786-0): > 100 µM (inactive) | GI50 (A498): > 100 µM (inactive) | GI50 (A549): > 100 µM (inactive) | GI50 (ACHN): > 100 µM (inactive) | GI50 (CAKI-1): > 100 µM (inactive) | GI50 (CCRF-CEM): > 100 µM (inactive) | GI50 (COLO 205): > 100 µM (inactive) | GI50 (DU-145): > 100 µM (inactive) | GI50 (EKVX): > 100 µM (inactive) | GI50 (HCC 2998): > 100 µM (inactive) | GI50 (HCT-116): > 100 µM (inactive) | GI50 (HCT-15): > 100 µM | GI50 (HL-60): > 100 µM (inactive) | GI50 (HOP-62): > 100 µM (inactive) | GI50 (HT-29): > 100 µM (inactive) | GI50 (Hs-578T): > 100 µM (inactive) | GI50 (IGROV-1): > 100 µM (inactive) | GI50 (KM12): > 100 µM (inactive) | GI50 (LOX IMVI): > 100 µM (inactive) | GI50 (M14): > 100 µM (inactive) | GI50 (MCF7): > 100 µM (inactive) | GI50 (MDA-MB-231): > 100 µM (inactive) | GI50 (MDA-MB-435): > 100 µM (inactive) | GI50 (MDA-N): > 100 µM (inactive) | GI50 (MOLT-4): > 100 µM (inactive) | GI50 (Malme-3M): > 100 µM (inactive) | GI50 (NCI-H226): > 100 µM (inactive) | GI50 (NCI-H23): > 100 µM (inactive) | GI50 (NCI-H460): > 100 µM (inactive) | GI50 (NCI/ADR-RES): > 100 µM (inactive) | GI50 (OVCAR-3): > 100 µM (inactive) | GI50 (OVCAR-4): > 100 µM (inactive) | GI50 (OVCAR-5): > 100 µM (inactive) | GI50 (OVCAR-8): > 100 µM (inactive) | GI50 (PC-3): > 100 µM (inactive) | GI50 (RXF 393): > 100 µM (inactive) | GI50 (SF-268): > 100 µM (inactive) | GI50 (SF-295): > 100 µM (inactive) | GI50 (SF-539): > 100 µM (inactive) | GI50 (SK-MEL-28): > 100 µM (inactive) | GI50 (SK-MEL-2): > 100 µM (inactive) | GI50 (SK-MEL-5): > 100 µM (inactive) | GI50 (SK-OV-3): > 100 µM (inactive) | GI50 (SN12C): > 100 µM (inactive) | GI50 (SNB-19): > 100 µM (inactive) | GI50 (SR): > 100 µM (inactive) | GI50 (SW-620): > 100 µM (inactive) | GI50 (T47D): > 100 µM (inactive) | GI50 (TK-10): > 100 µM (inactive) | GI50 (UACC-257): > 100 µM (inactive) | GI50 (UACC-62): > 100 µM (inactive)
